Patent US11795177B2, “Substituted quinoline analogs as aldehyde dehydrogenase 1A1 (ALDH1A1) inhibitors” (THE UNITED STATES OF AMERICA, AS REPRESENTED BY THE …, priority 2017, dated 2023)

Assays:
MIA PaCa-2 cells = experiment: MIA PaCa2 cell-based assay (1,536-well high-content imaging ALDEFLUOR assay); set-up: species or system human; conditions: Homo sapiens, 0.5 h, ALDEFLUOR BAAA substrate 500 nM, 30 minutes
Method in brief: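 MIA PaCa-2 cells (1,000/well), plated overnight, given BAAA substrate (500 nM) plus Hoechst 33342 (0.5 nM), then compound (16-point, 1.4 nM–47.8 μM final; 0.5% DMSO). After 30 min at 37° C, ALDH activity imaged by high-content microscopy as BAA-retaining (FITC) cells versus Hoechst-stained nuclei.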

ALDH1A1 enzyme = biological target: T1, ALDH1A1 enzyme (Homo sapiens, UniProt P00352); experiment: ALDH1A1 enzymatic assay (in vitro); format: biochemical; conditions: ALDH1A1 enzyme 20 nM, NAD+ 1 mM, propionaldehyde 80 μM; read-out: ALDH1A1 IC50
T1 sequence (P00352 1-501): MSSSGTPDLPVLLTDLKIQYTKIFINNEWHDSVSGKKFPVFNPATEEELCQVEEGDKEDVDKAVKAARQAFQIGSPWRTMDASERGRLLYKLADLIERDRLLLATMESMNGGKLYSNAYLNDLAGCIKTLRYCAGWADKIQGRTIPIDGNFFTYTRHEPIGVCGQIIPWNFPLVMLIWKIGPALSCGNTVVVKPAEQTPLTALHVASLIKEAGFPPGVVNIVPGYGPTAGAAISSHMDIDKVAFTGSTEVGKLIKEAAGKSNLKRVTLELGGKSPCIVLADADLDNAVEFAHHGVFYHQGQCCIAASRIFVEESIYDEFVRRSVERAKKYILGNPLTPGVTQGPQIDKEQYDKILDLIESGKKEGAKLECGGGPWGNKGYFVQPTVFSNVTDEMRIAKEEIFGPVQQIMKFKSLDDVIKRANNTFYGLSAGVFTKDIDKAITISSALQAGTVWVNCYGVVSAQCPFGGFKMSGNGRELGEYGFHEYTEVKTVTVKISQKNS
Method in brief: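 ALDH1A1 (20 nM final) in 100 mM HEPES pH 7.5, 0.01% Tween 20 was preincubated 15 min at RT with compound (968 pM–57.2 μM final), then started with 1 mM NAD+ and 80 μM propionaldehyde. NADH fluorescence (ex 340/em 450 nm) followed kinetically for 10 min; change normalized to no-inhibitor and no-enzyme controls for percent inhibition and curve fitting.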

`CC1(C#N)CCN(c2c(C(=O)N3CCN(S(C)(=O)=O)CC3)cnc3c(F)cc(F)cc23)CC1` [Example 135, 1-(6,8-difluoro-3-(4-(methylsulfonyl)piperazine-1-carbonyl)quinolin-4-yl)-4-methylpiperidine-4-carbonitrile] showed an IC50 (MIA PaCa-2 cells) of 1 to 10 µM and an IC50 (ALDH1A1 enzyme) of under 0.5 µM.
In the case of `CS(=O)(=O)N1CCN(C(=O)c2ccc3ccccc3c2-c2ccc(C3(C#N)CC3)cc2)CC1` [Example 300, 1-(4-(2-(4-(methylsulfonyl)piperazine-1-carbonyl)naphthalen-1-yl)phenyl)cyclopropanecarbonitrile], the IC50 (MIA PaCa-2 cells) is reported as under 0.5 µM and the IC50 (ALDH1A1 enzyme) is reported as under 0.5 µM.
In the case of `CC1(C#N)CCN(c2c(C(=O)N3CCN(S(C)(=O)=O)CC3)cnc3ccccc23)CC1` [Example 97, 4-methyl-1-(3-(4-(methylsulfonyl)piperazine-1-carbonyl)quinolin-4-yl)piperidine-4-carbonitrile], the IC50 (MIA PaCa-2 cells) is reported as over 10 µM and the IC50 (ALDH1A1 enzyme) is reported as under 0.5 µM.
With `O=C(c1cnc2c(F)cc(F)cc2c1N1CCC2(CC1)OCCO2)N1CCN(S(=O)(=O)N2CCCC2)CC1` [Example 163, (6,8-difluoro-4-(1,4-dioxa-8-azaspiro[4.5]decan-8-yl)quinolin-3-yl)(4-(pyrrolidin-1-ylsulfonyl)piperazin-1-yl)methanone] the IC50 (MIA PaCa-2 cells) was over 10 µM and the IC50 (ALDH1A1 enzyme) was under 0.5 µM.
`CC(C)C(=O)N1CCN(C(=O)c2cnc3ccc(F)cc3c2N2CCC3(CC2)OCCO3)CC1` [Example 49, 1-(4-(6-fluoro-4-(1,4-dioxa-8-azaspiro[4.5]decan-8-yl)quinoline-3-carbonyl)piperazin-1-yl)-2-methylpropan-1-one] was tested, and the IC50 (MIA PaCa-2 cells) was over 10 µM and the IC50 (ALDH1A1 enzyme) was under 0.5 µM.
In the case of `CC1(C#N)CCN(c2c(C(=O)N3CCN(S(=O)(=O)C4CC4)CC3)cnc3ccc(Cl)cc23)CC1` [Example 120, 1-(6-chloro-3-(4-(cyclopropylsulfonyl)piperazine-1-carbonyl)quinolin-4-yl)-4-methylpiperidine-4-carbonitrile], the IC50 (MIA PaCa-2 cells) is reported as 1 to 10 µM and the IC50 (ALDH1A1 enzyme) is reported as under 0.5 µM.
Compound `CCS(=O)(=O)N1CCN(C(=O)c2cnc3cc(F)c(F)cc3c2N2CCC(C)(C#N)CC2)CC1` [Example 176, 1-(3-(4-(ethylsulfonyl)piperazine-1-carbonyl)-6,7-difluoroquinolin-4-yl)-4-methylpiperidine-4-carbonitrile] has an IC50 (MIA PaCa-2 cells) of 1 to 10 µM and an IC50 (ALDH1A1 enzyme) of under 0.5 µM.
In the case of `COc1c(F)cc2c(N3CCC(C)(C#N)CC3)c(C(=O)N3CCN(C(=O)C4CC4)CC3)cnc2c1F` [Example 127, 1-(3-(4-(cyclopropanecarbonyl)piperazine-1-carbonyl)-6,8-difluoro-7-methoxyquinolin-4-yl)-4-methylpiperidine-4-carbonitrile], the IC50 (MIA PaCa-2 cells) is reported as 1 to 10 µM and the IC50 (ALDH1A1 enzyme) is reported as under 0.5 µM.
In the case of `CCNC(=O)N1CCN(C(=O)c2cnc3c(F)cc(F)cc3c2N2CCC(C)(C#N)CC2)CC1` [Example 145, 4-(4-(4-cyano-4-methylpiperidin-1-yl)-6,8-difluoroquinoline-3-carbonyl)-N-ethylpiperazine-1-carboxamide], the IC50 (MIA PaCa-2 cells) is reported as over 10 µM and the IC50 (ALDH1A1 enzyme) is reported as 0.5 to 1 µM.
`CC(C)(O)C1(c2ccccc2)CCN(c2c(C(=O)N3CCN(S(C)(=O)=O)CC3)cnc3ccc(F)cc23)CC1` [Example 258, (6-fluoro-4-(4-(2-hydroxypropan-2-yl)-4-phenylpiperidin-1-yl)quinolin-3-yl)(4-(methylsulfonyl)piperazin-1-yl)methanone] gave an IC50 (MIA PaCa-2 cells) of 1 to 10 µM and an IC50 (ALDH1A1 enzyme) of 0.5 to 1 µM.
Work on `C[C@@H]1CN(C(=O)c2cnc3ccc(F)cc3c2N2CCC(C)(C#N)CC2)C[C@H](C)N1S(C)(=O)=O` [Example 225, 1-(3-((3R*,5S*)-3,5-dimethyl-4-(methylsulfonyl)piperazine-1-carbonyl)-6-fluoroquinolin-4-yl)-4-methylpiperidine-4-carbonitrile] yielded an IC50 (MIA PaCa-2 cells) of over 10 µM and an IC50 (ALDH1A1 enzyme) of 1 to 10 µM.
In the case of `CCC(=O)N1CCN(C(=O)c2cnc3cc(OC)ccc3c2N2CCC(C)(C#N)CC2)CC1` [Example 102, 1-(7-methoxy-3-(4-propionylpiperazine-1-carbonyl)quinolin-4-yl)-4-methylpiperidine-4-carbonitrile], the IC50 (MIA PaCa-2 cells) is reported as 1 to 10 µM and the IC50 (ALDH1A1 enzyme) is reported as under 0.5 µM.
Work on `CC1(C#N)CCN(c2c(C(=O)N3CCN(C(=O)C4CC4)CC3)cnc3ccc(Cl)cc23)CC1` [Example 117, 1-(6-chloro-3-(4-(cyclopropanecarbonyl)piperazine-1-carbonyl)quinolin-4-yl)-4-methylpiperidine-4-carbonitrile] yielded an IC50 (MIA PaCa-2 cells) of 1 to 10 µM and an IC50 (ALDH1A1 enzyme) of under 0.5 µM.
With `COc1cc2ncc(C(=O)N3CCN(C(C)=O)CC3)c(N3CCC(C)(C#N)CC3)c2cc1OC` [Example 112, 1-(3-(4-acetylpiperazine-1-carbonyl)-6,7-dimethoxyquinolin-4-yl)-4-methylpiperidine-4-carbonitrile] the IC50 (MIA PaCa-2 cells) was 1 to 10 µM and the IC50 (ALDH1A1 enzyme) was under 0.5 µM.
In the case of `N#CC1(c2ccccc2)CCN(c2c(C(=O)N3CC4(C3)CS(=O)(=O)C4)cnc3ccc(F)cc23)CC1` [Cpd. 328, 1-(3-(2,2-dioxido-2-thia-6-azaspiro[3.3]heptane-6-carbonyl)-6-fluoroquinolin-4-yl)-4-phenylpiperidine-4-carbonitrile], the IC50 (MIA PaCa-2 cells) is reported as under 0.5 µM and the IC50 (ALDH1A1 enzyme) is reported as under 0.5 µM.
`Cn1ncc2c(N3CCC(C)(C#N)CC3)c(C(=O)N3CCN(C(=O)C4CC4)CC3)cnc21` [Example 205, 1-(5-(4-(cyclopropanecarbonyl)piperazine-1-carbonyl)-1-methyl-1H-pyrazolo[3,4-b]pyridin-4-yl)-4-methylpiperidine-4-carbonitrile] gave an IC50 (MIA PaCa-2 cells) of 1 to 10 µM and an IC50 (ALDH1A1 enzyme) of under 0.5 µM.
`CC1(C#N)CCN(c2c(C(=O)N3CCC(S(C)(=O)=O)CC3)cnc3cc(F)c(F)cc23)CC1` [Example 190, 1-(6,7-difluoro-3-(4-(methylsulfonyl)piperidine-1-carbonyl)quinolin-4-yl)-4-methylpiperidine-4-carbonitrile] gave an IC50 (MIA PaCa-2 cells) of 1 to 10 µM and an IC50 (ALDH1A1 enzyme) of under 0.5 µM.
Work on `CC1(O)CCN(C(=O)c2cnc3ccc(F)cc3c2N2CCC(C#N)(c3ccccc3)CC2)CC1` [Cpd. 349, 1-(6-fluoro-3-(4-hydroxy-4-methylpiperidine-1-carbonyl)quinolin-4-yl)-4-phenylpiperidine-4-carbonitrile] yielded an IC50 (MIA PaCa-2 cells) of under 0.5 µM and an IC50 (ALDH1A1 enzyme) of under 0.5 µM.
In the case of `C[C@H]1CN(C(=O)C2CC2)CCN1C(=O)c1cnc2ccc(F)cc2c1N1CCC(C)(C#N)CC1` [Example 238, (s)-1-(3-(4-(cyclopropanecarbonyl)-2-methylpiperazine-1-carbonyl)-6-fluoroquinolin-4-yl)-4-methylpiperidine-4-carbonitrile], the IC50 (MIA PaCa-2 cells) is reported as over 10 µM and the IC50 (ALDH1A1 enzyme) is reported as 1 to 10 µM.
With `CCNC(=O)N1CCN(C(=O)c2cnc3ccc(Cl)cc3c2N2CCC(C)(C#N)CC2)CC1` [Example 121, 4-(6-chloro-4-(4-cyano-4-methylpiperidin-1-yl)quinoline-3-carbonyl)-N-ethylpiperazine-1-carboxamide] the IC50 (MIA PaCa-2 cells) was 1 to 10 µM and the IC50 (ALDH1A1 enzyme) was under 0.5 µM.
Compound `CCN(CC)C(=O)N1CCN(C(=O)c2cnc3c(F)cc(F)cc3c2N2CCC3(CC2)OCCO3)CC1` [Example 159, 4-(6,8-difluoro-4-(1,4-dioxa-8-azaspiro[4.5]decan-8-yl)quinoline-3-carbonyl)-N,N-diethylpiperazine-1-carboxamide] has an IC50 (MIA PaCa-2 cells) of 1 to 10 µM and an IC50 (ALDH1A1 enzyme) of under 0.5 µM.
`COc1ccc2ncc(C(=O)N3CCN(C(C)=O)CC3)c(N3CCC4(CC3)OCCO4)c2c1` [Example 38, 1-(4-(6-methoxy-4-(1,4-dioxa-8-azaspiro[4.5]decan-8-yl)quinoline-3-carbonyl)piperazin-1-yl)ethanone] showed an IC50 (MIA PaCa-2 cells) of 1 to 10 µM and an IC50 (ALDH1A1 enzyme) of under 0.5 µM.
`CS(=O)(=O)C1CCN(C(=O)c2cnc3ccsc3c2-c2ccc(C3(C#N)CC3)cc2)CC1` [Example 283] gave an IC50 (MIA PaCa-2 cells) of under 0.5 µM and an IC50 (ALDH1A1 enzyme) of under 0.5 µM.
